Tests used:
[1] = Evaluation of hygroscopicity (storage 1 week; water content, powder X-ray diffraction); type: physicochemical; details: for change in appearance and crystal transition / change of water content / hygroscopicity: 25° C., relative humidity 75% or 93%; for crystal form: powder X-ray diffraction
Description: The hygroscopicity and solid stability of a crystalline form of the mesylate of the carboxamide (Form A) (obtained in Example 5), a crystalline form of the mesylate of the carboxamide (Form C) (obtained in Example 7), a crystalline form of the acetic acid solvate of the mesylate of the carboxamide (Form I) (obtained in Example 10) and a crystalline form of the esylate of the carboxamide (Form β) (obtained in Example 12) were measured under the following conditions.
1. Storage Conditions for the Hygroscopicity Test (Period: 1 Week)
a-1. 25° C., relative humidity 75%
b-1. 25° C., relative humidity 93%
Analysis was carried out according to “X-Ray Powder Diffraction Method” described in Japanese Pharmacopoeia 14th Edition, General Tests (B-614 to 619) under the following measurement conditions. • Apparatus: RINT-2000 (manufacture by Rigaku Denki K. K.) • X-ray: CuKα ray • Monochrometer: curved crystal monochrometer • Goniometer: vertical goniometer • Counter: scintillation counter • Applied voltage: 40 kV • Charging current: 200 mA • Scan speed: 5°/min • Scan axis: 2θ/θ • Scan range; 2θ+5° to 40° • Divergent slit: 0.5° • Scattering slit: 0.5° • Receiving slit: 0.3 mm 5. Measurement of Water Content
Measurement was carried out according to the Water Determination as described in Japanese Pharmacopoeia 14th Edition, General Tests (B-318 to 331) using 6 to 10 mg of each crystal.

[2] = Evaluation of solid stability (storage 2 weeks; total impurity by HPLC, water content, powder X-ray diffraction); type: physicochemical; details: for changes in water content and appearance, crystal transition: all storage conditions
Description: 2. Storage Conditions for the Solid Stability Test (Period: 2 Weeks) a-2. −20° C. (well closed) b-2. 25° C., light irradiation (1000 1×; shading with aluminum foil, well closed) c-2. 25° C., light irradiation (1000 1×; well closed) […]
e-2. 60° C. (well closed except the following case: slightly open in the case of a crystalline form of the acetic acid solvate of the mesylate (Form I))
3. Method for Measuring the Impurity Amount by HPLC
After storage, the sample solution was prepared by adding a mixed solvent of water and methanol (3:1) to each crystal at 0.1 mg/mL as final concentration.
Tests were conducted by the HPLC method for these sample solutions under the measurement conditions described below, and the eluted peak areas were measured to determine the total impurity amount by the relative area method (impurities of 0.05% or more were counted).
(Formula for Calculating Total Impurity Amount)
• Individual impurity amount (%)=(the peak area for the individual impurity)×100/{(the peak area for carboxamide)+(sum of the peak areas for impurities)} • Total impurity amount (%)=sum of individual impurity amounts (HPLC Measurement Conditions) • Column: Mightysil RP-18 GP (Kanto Kagaku; inner diameter 4.6 mm, column length 150 mm, particle size 3 μm) • Column temperature: constant temperature in vicinity of 40° C. • Flow rate: 1.0 mL/min • Mobile phase:
Solution B: CH3CN:H2O:HClO4=900:100:1 (v/v/v) • Gradient conditions […]
• Injection amount: 10 μL • Detection: ultraviolet absorbance photometer (wavelength: 252 nm) • Temperature of auto sampler: constant temperature in vicinity of 10° C. 4. Powder X-ray Diffraction […]
Measurement of Water Content

[3] = Test for measuring dissolution rate (rotating disk method); type: physicochemical; details: 2nd fluid pH 6.8, 37° C., 50 rpm
Description: The dissolution rates of the following crystals were measured under the conditions described below by the rotating disk method (see, J. H. Woods et al., J. Pharm. Soc., 54, 1068 (1955)): a crystalline form of the free carboxamide (obtained in Preparation Example 1), a crystalline form of the hydrochloride of the carboxamide (obtained in Example 1), a crystalline form of the hydrobromide of the carboxamide (obtained in Example 2), a crystalline form of the methanesulfonate (hereunder, referred to as “mesylate”) of the carboxamide (Form A) (obtained in Example 5), a crystalline form of the mesylate of the carboxamide (Form C) (obtained in Example 7) and a crystalline form of the ethanesulfonate (hereunder, referred to as “esylate”) (Form β) (obtained in Example 12). The dissolution rates were calculated based on a range in which linearity was maintained in the relation between concentration and time at the initial stage of dissolution.
(Rotating Disk Method Conditions)
• Solvent: “2nd fluid” (pH 6.8, 500 mL) as described in Japanese Pharmacopoeia 14th Edition, General Tests (disintegration test) • Temperature: 37° C. • Disk rotation speed: 50 rpm • Area of powder contacting with solvent on disk: 1 cm^2 • Sampling amount: approx. 1 mL (HPLC Conditions) • Column: Cadenza CD-18 (Imtakt Corporation; inner diameter 4.6 mm, Column length 100 mm, particle size 3 μm) • Column temperature: 40° C. • Flow rate: 1.0 mL/min • Mobile phase:
Concentration of solution B: 20% • Injection amount: 100 μL • Detection: ultraviolet absorbance photometer (wavelength: 252 nm) • Temperature of auto sampler: 25° C. [Results]

[4] = Study of pharmacokinetics in beagle dogs; type: in vivo; details: mean ± standard error
Description: A crystalline form of the free from of the carboxamide (obtained in Preparation Example 1), a crystalline form of the hydrobromide of the carboxamide (obtained in Example 2) and a crystalline form of the mesylate of the carboxamide (Form A) (obtained in Example 5) were grounded in a mortar, encapsulated in a gelatin capsule, and then administered orally to beagle dogs (n=3). After administration, 10 mL of water was further administered orally. The dose was set such that it was equivalent to 3 mg/kg as a free form, and the beagle dogs were fasted from the day before administration, and fed again 8 hours after the administration.
To calculate bioavailability (BA), a test was conducted using a single intravenous administration. More specifically, a crystalline form of the free from of the carboxamide was dissolved in a solution containing 10% dimethyl sulfoxide, 50% polyethylene glycol 400 and 40% 0.1 M aqueous solution of hydrochloric acid and administered intravenously through cephalic vein of the foreleg.
The plasma concentration of the carboxamide was measured by HPLC-UV method after sampling blood from cephalic vein of the foreleg. Based on the concentration, pharmacokinetic parameters were calculated for each individual by the moment method. Further, based on the calculated parameters, the mean value and standard error thereof were calculated.

[5] = a-1: 25° C., relative humidity 75%, 1 week
[6] = b-1: 25° C., relative humidity 93%, 1 week
[7] = a-2: −20° C. (well closed), 2 weeks
[8] = b-2: 25° C., light irradiation 1000 lx, shading with aluminum foil, well closed, 2 weeks
[9] = c-2: 25° C., light irradiation 1000 lx, well closed, 2 weeks
[10] = d-2: 40° C., relative humidity 75%, 2 weeks
[11] = e-2: 60° C., 2 weeks (well closed; slightly open for Form I)
[12] = solid stability test, initial, HPLC relative area
[13] = beagle dogs n=3, oral, gelatin capsule, 3 mg/kg as free form, fasted

| Structure (SMILES) | change in appearance and crystal transition ([1]; 1 week) | change of water content ([1]; 1 week) | water content [1, 5] | water content [1, 6] | water content ([1]; hygroscopicity test, initial) | total impurity [2, 7] | water content [2, 7] | total impurity [2, 8] | water content [2, 8] | total impurity [2, 9] | water content [2, 9] | total impurity [2, 10] | water content [2, 10] | total impurity [2, 11] | water content [2, 11] | water content ([2]; solid stability test, initial) | total impurity [2, 12] | hygroscopicity ([1]; 1 week) | changes in water content and appearance, crystal transition ([2]; solid stability test, 2 weeks) | dissolution rate [3] | also measured |
| --- | --- | --- | --- | --- | --- | --- | --- | --- | --- | --- | --- | --- | --- | --- | --- | --- | --- | --- | --- | --- | --- |
| CC(=O)O.COc1cc2nccc(Oc3ccc(NC(=O)NC4CC4)c(Cl)c3)c2cc1C(N)=O.CS(=O)(=O)O [Acetic Acid Solvate of the Methanesulfonate of 4-(3-chloro-4-(cyclopropylaminocarbonyl)aminophenoxy)-7-methoxy-6-quinolinecarboxamide] | transition to a crystalline form of the mesylate (Form C) | a decrease in water content was observed | 0.6% | 0.8% | 2.9% | 0.67% | 3.1% | 0.66% | 3.1% | 0.87% | 2.9% | 0.61% | 0.9% | 0.84% | 0.3% | 2.9% | 0.62% |  |  |  | crystal transition ([2]; 40° C. and relative humidity of 75%, 2 weeks): transition to a crystalline form of the mesylate (Form C); crystal transition ([2]; 60° C. in a slightly opened container, 2 weeks): transition to a crystalline form of the mesylate (Form B); crystal transition, changes in total impurity amount, water content and appearance ([2]; stored in a well closed container, 2 weeks): neither crystal transition nor remarkable changes in total impurity amount, water content and appearance were observed |
| CCS(=O)(=O)O.COc1cc2nccc(Oc3ccc(NC(=O)NC4CC4)c(Cl)c3)c2cc1C(N)=O [esylate (Form β), Ethanesulfonate of 4-(3-chloro-4-(cyclopropylaminocarbonyl)aminophenoxy)-7-methoxy-6-quinolinecarboxamide] | Neither remarkable change in appearance nor crystal transition was observed | did not change remarkably | 1.7% | 1.4% | 1.7% | 0.48% | 2.0% | 0.46% | 2.5% | 0.49% | 2.1% | 0.48% | 2.0% | 0.51% | 2.2% | 1.7% | 0.55% | not observed | neither remarkable changes in water content and appearance nor crystal transition was observed | 18.5 μg/min/cm^2 | crystal form [1, 5]: β; crystal form [1, 6]: β; crystal form ([1]; hygroscopicity test, initial): β; crystal form [2, 7]: β; crystal form [2, 8]: β; crystal form [2, 9]: β; crystal form [2, 10]: β; crystal form [2, 11]: β; crystal form ([2]; solid stability test, initial, powder X-ray diffraction): β |
| Br.COc1cc2nccc(Oc3ccc(NC(=O)NC4CC4)c(Cl)c3)c2cc1C(N)=O [hydrobromide, Hydrobromide of 4-(3-chloro-4-(cyclopropylaminocarbonyl)aminophenoxy)-7-methoxy-6-quinolinecarboxamide] |  |  |  |  |  |  |  |  |  |  |  |  |  |  |  |  |  |  |  | 8.7 μg/min/cm^2 | BA ([4]; beagle dogs n=3, oral 3 mg/kg as free form vs single intravenous administration of free form): 73.5 ± 2.3%; AUC0-24hr [4, 13]: 4800 ± 200 ng·h/mL; Maximum plasma concentration (Cmax) [4, 13]: 480.4 ± 31.4 ng/mL; plasma concentration after 24 hours (C24hr) [4, 13]: 100.5 ± 81.7 ng/mL; time to reach maximum plasma concentration (Tmax) [4, 13]: 2.67 ± 0.7 h |
| COc1cc2nccc(Oc3ccc(NC(=O)NC4CC4)c(Cl)c3)c2cc1C(N)=O.Cl [hydrochloride, Hydrochloride of 4-(3-chloro-4-(cyclopropylaminocarbonyl)aminophenoxy)-7-methoxy-6-quinolinecarboxamide] |  |  |  |  |  |  |  |  |  |  |  |  |  |  |  |  |  |  |  | 4.7 μg/min/cm^2 |  |
| COc1cc2nccc(Oc3ccc(NC(=O)NC4CC4)c(Cl)c3)c2cc1C(N)=O.CS(=O)(=O)O [mesylate (Form C), Methanesulfonate of 4-(3-chloro-4-(cyclopropylaminocarbonyl)aminophenoxy)-7-methoxy-6-quinolinecarboxamide] | Neither remarkable change in appearance nor crystal transition was observed | did not change remarkably | 0.6% | 0.7% | 0.7% | 2.10% | 0.7% | 2.09% | 0.8% | 2.22% | 0.7% | 2.06% | 0.6% | 2.18% | 0.5% | 0.7% | 2.11% | not observed | neither remarkable changes in water content and appearance nor crystal transition was observed | 15.5 μg/min/cm^2 |  |

Reference: US7612208B2, “Crystalline form of the salt of 4-(3-chloro-4-(cyclopropylaminocarbonyl)aminophenoxy)-7-methoxy-6-quinolinecarboxamide or the solvate of the salt and a process for preparing the same” (Eisai R&D Management Co., Ltd., priority 2003, dated 2009)
